Measurements published in EP0006845A1, “Pharmaceutical composition comprising a 5-aroyl-1-C1-5 alkyl-pyrrole-2-acetic acid compound and acetaminophen or acetylsalicylic acid” (McNeilab, Inc., priority 1978, dated 1980).

Legend:
[1] = tested on: adjuvant arthritic rats; assay: adjuvant arthritis test, evaluation of paw volume of the non-injected hind paw; assay type: in vivo, female Wistar, Lewis rats
Text: (§1) The efficacy of the novel combination of this invention in inhibiting inflammation and osteogenic degeneration is particularly seen in the adjuvant arthritis test. […] The adjuvant arthritis test, a test in which adjuvant arthritis which results both in inflammation and osteogenic changes is induced by Mycobacterium butvricum and in which the effect of the test compounds on each effect can be Determined, is considered to be .most useful for evaluation of compounds which may be suitable for the treatment of rheumatoid arthritis and other arthritic diseases. The test procedure, in which the effect on inflammation is determined by paw volume changes and the effect on osteogenic changes is determined by microscopic observation, is described by Wong et al, in J. Pharmacol.Exp.Ther. 185, 127-138, 1973, and is employed in the present determination of the potentiation of the antiarthritic properties of 5-aroyl-l-loweralkyl-pyrrole-2-acetic acid derivatives by aspirin or acetaminophen.
(§2) Briefly, in this procedure, adjuvant arthritis is induced in female Wistar, Lewis rats (Charles River Breeding Laboratories. Inc., Wiimington, Mass.) weighing 160-190 gm by a single subcutaneous injection of 0.75 mg Mycobacterium butyricum (Difco) into the left hind paw. The non-injected hind paw remains a normal size for the first seven days. Swelling begins to appear in the non-injected paw of the first rats on Day 8. Using the paw volume determination technique (a technique in which rat paws are dippedin mercury to the hairline and the volume of displacement determined by a modified Van Arman mercury displacement method as described in the aforementioned paper of Wong et al), the time progress curve of volume changes in the non-injected (contralateral) paw is followed. […] The mean onset time for 100 rats is found to be 11.6 days with a standard deviation of 1.9 days and the frequency of onset time values distributed normally between Days 8 and 19. Thus, determinations of antiarthritic activity are made in the period Day 11 to Day 28.
(§3) For determination of anti-inflammatory properties two different evaluations are made: (a) the evaluation of paw volume during the Phase II and Phase III periods and, (b) the evaluation of osteogenic (bone) degenration during the Phase IV period.
For evaluation of paw volume, adjuvant arthritic rats with early but significant signs of arthritis in the contralateral paw are selected on Day 11 and randomly assigned to the various groups of 10 animals in each group. All test -animals are dosed-daily (per os) with the test compound, preferably as sodium salt, or in saline for 17 days (Days 11 to 27 inclusive). Control animals are dosed with an equivalent volume of saline. The paw volumes of the non-injected paws are determined initially on Day 11 and again on Days 15, 18, 22, 25, and 28. The paw volumes are then compared with normal paw volumes of adjuvant arthitic rats previously determined from a reference curve relating normal paw volume to body weight. The volume of each individual rat which is greater than the normal volume is utilized in the analysis of the data. Values for drug treated animals are expressed as a percent inhibition of the paw volume change relative to the mean value for saline controls. Data is evaluated statistically and ED50 values with 95 percent confidence limits are calculated. The method for statistical analysis is described in detail in the aforementioned paper of Wong et al. The term "ED50" refers to the dose of drug required to produce 50 percent antagonism of the paw volume changes observed in the saline treated adjuvant arthritis controls. Suppression of paw volume changes reflects anti-inflammatory and antiarthritic activity of a test drug.

[2] = tested on: adjuvant arthritic rats; assay: adjuvant arthritis test, evaluation of bone degeneration (osteogenic changes) in the non-injected hind paw; assay type: in vivo, female Wistar, Lewis rats; settings: Rattus norvegicus
Text: as §1, §2, §3
For evaluation of bone degenerations, normal and adjuvant arthritic rats are sacrificed under C02, after the paw volume measurements have been completed on Day 28. The hind legs are removed above the knees and skinned and the soft tissues dissected away with care to avoid injury to bone and articular structures. The leg bones are then immersed in 2 percent potassium hydroxide solution for approximately four to five days until the remaining soft tissues becomes properly macerated and/or transparent, and the bones are fully visible. The leg bones are stained with Alizarin Red (0.01 percent in 2 percent KOH) for eight hours, and then processed through increasing concentrations of glycerol in water (20, 40, 60, 80 and 100 percent) for purposes of clearing the tissues for microscopic observation. The distal end of the tibiae, the tarsals, metatarsals, phalanges, and sesamoids are evaluated under a Stereozoom Microscope (a special type of dissecting microscope, product of Bausch and Lomb).
Osteogenic changes for each bone (in 31 bone categories) in the non-injected hind paw are graded on a scale of from 0 to 10 (increasing numerical value corresponding to increasing severity of bone degeneration). A total bone degeneration score is obtained (maximum score/paw = 310 points) and then expressed as a percent score. The mean percent score (95 percent confidence limits) for saline control groups from 26 experiments (184 animals) is found to be 53.4 (50.9-55.9). Percent score values for drug treated animals are expressed as a percent inhibition relative to the mean for the saline control group. Data is evaluated statistically and ED50 values with 95 percent confidence limits are calculated.

With Cc1ccc(C(=O)c2ccc(CC(=O)O)n2C)cc1 [Tolmetin, 1-methyl-5-p-toluoyl-pyrrole-2-acetic acid] as the compound, how does the ED50 ([1]; Rattus norvegicus, 672 h, Table IV, ED50 of tolmetin without Aspirin, Day 28, read-out: ED50) read?
Its ED50 is 32 mg/kg.

What about the inhibition at 5.6 mg/kg ([1]; Rattus norvegicus, 672 h, Tolmetin 5.6 mg/kg/day alone, Day 28, read-out: Percent Inhibition ± S.E. (Day 28)) of the same compound?
Its inhibition at 5.6 mg/kg is 30.5 ± 5.1%.

And the inhibition at 11.1 mg/kg ([1]; Rattus norvegicus, 672 h, Tolmetin 11.1 mg/kg/day alone, Day 28, read-out: Percent Inhibition ± S.E. (Day 28))?
Its inhibition at 11.1 mg/kg is 34.5 ± 8%.

And the inhibition at 16.7 mg/kg ([1]; Rattus norvegicus, 672 h, Tolmetin 16.7 mg/kg/day alone, Day 28, read-out: Percent Inhibition ± S.E. (Day 28))?
Its inhibition at 16.7 mg/kg is 58.4 ± 8.1%.

And the inhibition at 33.3 mg/kg ([1]; Rattus norvegicus, 672 h, Tolmetin 33.3 mg/kg/day alone, Day 28, read-out: Percent Inhibition ± S.E. (Day 28))?
The inhibition at 33.3 mg/kg was 50.8 ± 8.4%.

What about the inhibition at 50 mg/kg ([1]; Rattus norvegicus, 672 h, Tolmetin 50 mg/kg/day alone, Day 28, read-out: Percent Inhibition ± S.E. (Day 28)) of the same compound?
The inhibition at 50 mg/kg was 62.6 ± 2.7%.

What about the inhibition at 100 mg/kg ([1]; Rattus norvegicus, 672 h, Tolmetin 100 mg/kg/day alone, Day 28, read-out: Percent Inhibition ± S.E. (Day 28)) of the same compound?
The inhibition at 100 mg/kg was 66.4 ± 3.9%.

What about the ED50 ([1]; Rattus norvegicus, Table II, tolmetin without acetaminophen, read-out: ED50 values of Tolmetin) of the same compound?
The ED50 was 32 mg/kg.

What about the inhibition at 7.5 mg/kg ([1]; Rattus norvegicus, Tolmetin 7.5 mg/kg/day alone, read-out: Percent Inhibition of Paw Volume ± S.E.) of the same compound?
Its inhibition at 7.5 mg/kg is 37.8 ± 8.8%.

And the inhibition at 30 mg/kg ([1]; Rattus norvegicus, Tolmetin 30.0 mg/kg/day alone, read-out: Percent Inhibition of Paw Volume ± S.E.)?
Its inhibition at 30 mg/kg is 49.3 ± 9.7%.

What about the inhibition at 120 mg/kg ([1]; Rattus norvegicus, Tolmetin 120.0 mg/kg/day alone, read-out: Percent Inhibition of Paw Volume ± S.E.) of the same compound?
The inhibition at 120 mg/kg was 78.4 ± 3%.

And the ED50 ([1]; Rattus norvegicus, po, 360 h, drug given alone per os, Day 15, read-out: ED50 Values and 95 Percent C.L.)?
The ED50 was 42.1 mg/kg.

What about the ED50 ([1]; Rattus norvegicus, po, 432 h, drug given alone per os, Day 18, read-out: ED50 Values and 95 Percent C.L.) of the same compound?
Its ED50 is 40.6 mg/kg.

What about the ED50 ([1]; Rattus norvegicus, po, 528 h, drug given alone per os, Day 22, read-out: ED50 Values and 95 Percent C.L.) of the same compound?
Its ED50 is 32.4 mg/kg.

What about the ED50 ([1]; Rattus norvegicus, po, 600 h, drug given alone per os, Day 25, read-out: ED50 Values and 95 Percent C.L.) of the same compound?
The ED50 was 29.5 mg/kg.

And the ED50 ([1]; Rattus norvegicus, po, 672 h, drug given alone per os, Day 28, read-out: ED50 Values and 95 Percent C.L.)?
Its ED50 is 26.4 mg/kg.

What about the “ED50 Values and 95 Percent C.L.” value ([1]; drug given alone per os, Day 28, 40320 min) of the same compound?
Its value is 26.4 (22.3 - 29.6) mg/kg/day.

What about the inhibition at 7.5 mg/kg ([2]; Tolmetin 7.5 mg/kg/day alone, read-out: Percent Inhibition of Bone Degeneration ± S.E.) of the same compound?
The inhibition at 7.5 mg/kg was 18.6 ± 6.9%.

What about the inhibition at 30 mg/kg ([2]; Tolmetin 30.0 mg/kg/day alone, read-out: Percent Inhibition of Bone Degeneration ± S.E.) of the same compound?
The inhibition at 30 mg/kg was 26.3 ± 3.7%.

What about the inhibition at 120 mg/kg ([2]; Tolmetin 120.0 mg/kg/day alone, read-out: Percent Inhibition of Bone Degeneration ± S.E.) of the same compound?
Its inhibition at 120 mg/kg is 51.7 ± 6.4%.

And the inhibition at 5.6 mg/kg ([2]; bone degeneration, Tolmetin 5.6 mg/kg/day alone, read-out: Percent Inhibition ± S. E.)?
Its inhibition at 5.6 mg/kg is 26.6 ± 7%.

What about the inhibition at 11.1 mg/kg ([2]; bone degeneration, Tolmetin 11.1 mg/kg/day alone, read-out: Percent Inhibition ± S. E.) of the same compound?
The inhibition at 11.1 mg/kg was 28.7 ± 7.7%.

And the inhibition at 16.7 mg/kg ([2]; bone degeneration, Tolmetin 16.7 mg/kg/day alone, read-out: Percent Inhibition ± S. E.)?
The inhibition at 16.7 mg/kg was 27.5 ± 4.9%.

And the inhibition at 33.3 mg/kg ([2]; bone degeneration, Tolmetin 33.3 mg/kg/day alone, read-out: Percent Inhibition ± S. E.)?
Its inhibition at 33.3 mg/kg is 33.4 ± 3.9%.

And the inhibition at 50 mg/kg ([2]; bone degeneration, Tolmetin 50.0 mg/kg/day alone, read-out: Percent Inhibition ± S. E.)?
The inhibition at 50 mg/kg was 34.9 ± 2.7%.

And the inhibition at 100 mg/kg ([2]; bone degeneration, Tolmetin 100 mg/kg/day alone, read-out: Percent Inhibition ± S. E.)?
The inhibition at 100 mg/kg was 54.2 ± 1.9%.

What about the ED50 ([2]; Table III, ED50 of tolmetin without acetaminophen, read-out: ED50 values) of the same compound?
Its ED50 is 110 mg/kg.

What about the ED50 ([2]; Table V, ED50 of tolmetin without Aspirin, read-out: ED50) of the same compound?
The ED50 was 89.7 mg/kg.

What about the ED50 ([2]; drug alone, suppression of osteogenic changes, data from several experiments pooled, read-out: ED50 and 95 percent C.L.) of the same compound?
Its ED50 is 110 mg/kg.
